According to patent US20110230478A1 (Bayer ScienceCrop AG, priority 2008, published 2011):
Where two headings read alike, the source gives them in different places.

Test: logP by HPLC on reversed-phase columns (C 18), EEC Directive 79/831 Annex V.A8
Assay type: physicochemical
Settings: for chromatographic logP: reversed-phase HPLC column (C 18)
[1] = method marker [b], footnote not given, compound 68 value matches logP (pH 2.3)
[2] = method marker [a], footnote not given
[3] = values marked [b], footnote not given

logP [1]	further results	Compound
2.36[b]		CN(C)c1nc(Nc2ccccc2)ncc1C#N [Example 44]
	logP [2]: 2.5[a]	CC(=O)c1cccc(Nc2ncc(Cl)c(N(C)C(C)C)n2)c1.Cl [Example 45]
	logP [2]: 2.45[a]	CC(C)N(C)c1nc(Nc2ccccc2)ncc1Cl.Cl [Example 46]
	logP [2]: 2.08[a]	CC(C)Nc1nc(Nc2cccc(S(=O)(=O)N(C)C)c2)ncc1Cl [Example 47]
1.54[b]	logP (method marker [c], footnote not given): 2.56[c];	CC(C)Nc1nc(Nc2cccc(CN3CCN(C)C3=O)c2)ncc1Cl [Example 48]
	logP [2]: 2.15[a]	CC(=O)c1cccc(Nc2ncc(Cl)c(NC(C)(C)C)n2)c1 [Example 49]
	logP [2]: 1.79[a]	CC(=O)c1cccc(Nc2ncc(Cl)c(NC(C)C)n2)c1.Cl [Example 50]
	logP [2]: 3.33[a]	CCC(C)N(C)c1nc(Nc2cccc(S(=O)(=O)N(C)C)c2)ncc1Cl (stereo not shown) [Example 52]
	logP [2]: 0.86[a]	Cl.OCCNc1nc(Nc2ccccc2)ncc1Cl [Example 53]
	logP [2]: 1.26[a]	COc1cc(Nc2ncc(Cl)c(NCCO)n2)cc(OC)c1.Cl [Example 54]
	logP [2]: 1.09[a]	COc1cc(Nc2ncc(Cl)c(NCCO)n2)cc(OC)c1OC.Cl [Example 55]
	logP [2]: 1.06[a]	CC(=O)c1cccc(Nc2ncc(Cl)c(NCCO)n2)c1.Cl [Example 56]
	logP [2]: 1.6[a]	CC(C)c1ccc(Nc2ncc(Cl)c(NCCO)n2)cc1.Cl [Example 58]
	logP [2]: 1.48[a]	CC(C)Oc1ccc(Nc2ncc(Cl)c(NCCO)n2)cc1.Cl [Example 59]
	logP [2]: 2.29[a]	CCN(CC)c1nc(Nc2ccccc2)ncc1Cl [Example 60]
1.41[b]	logP [2]: 1.41[a];	COCCNc1nc(Nc2ccccc2)ncc1Cl.Cl [Example 61]
1.67[b]	logP [2]: 1.67[a];	COCCNc1nc(Nc2cc(OC)cc(OC)c2)ncc1Cl.Cl [Example 62]
	logP [2]: 2.18[a]	COCC(C)Nc1nc(Nc2ccc(S(=O)(=O)N3CCOCC3)cc2)ncc1Cl (stereo not shown) [Example 63]
	logP [2]: 2.84[a]	CC(C)(C)Nc1nc(Nc2ccc(S(=O)(=O)N3CCOCC3)cc2)ncc1Cl [Example 64]
	logP [2]: 2.04[a]	CCC(C)Nc1nc(Nc2ccccc2)ncc1Cl.Cl (stereo not shown) [Example 65]
	logP [2]: 1.68[a]	C=CCNc1nc(Nc2ccccc2)ncc1Cl.Cl [Example 66]
2.6[b]		CSCCNc1nc(Nc2ccccc2)ncc1C#N [Example 67]
	chromatographic logP (pH 2.3, method marker [b], footnote not given, compound 68 value matches logP (pH 2.3), read-out: logP): 2.68; chromatographic logP (pH 2.3, pH 2.3, 0.1% aqueous phosphoric acid and acetonitrile, read-out: logP [a]): 2.68	CCCNc1nc(Nc2ccccc2)ncc1C#N [Example 68, 2-(Phenylamino)-4-(propylamino)pyrimidine-5-carbonitrile]

logP [1]	further results	Compound
1.8[b]		COCC(C)Nc1nc(Nc2ccc(F)cc2)ncc1Cl (stereo not shown) [Example 69]
2.82[b]		COCC(C)Nc1nc(Nc2cccc(Cl)c2)ncc1Br (stereo not shown) [Example 71]
2.37[b]		COCC(C)Nc1nc(Nc2cccc(S(=O)(=O)N(C)C)c2)ncc1Br (stereo not shown) [Example 72]
2.16[b]		COCC(C)Nc1nc(Nc2ccc(F)cc2F)ncc1Br (stereo not shown) [Example 73]
4.08[b]		COCC(C)Nc1nc(Nc2ccc3c(c2)OC(F)(F)C(F)(F)O3)ncc1Br (stereo not shown) [Example 75]
2.23[b]		COCC(C)Nc1nc(Nc2ccc(Cl)c(S(C)(=O)=O)c2)ncc1Br (stereo not shown) [Example 76]
2.3[b]		COCC(C)Nc1nc(Nc2cccc(SC)c2)ncc1Br (stereo not shown) [Example 77]
2.57[b]		CCC(=O)c1ccc(Nc2ncc(Br)c(NC(C)COC)n2)cc1 (stereo not shown) [Example 78]
1.55[b]		COCC(C)Nc1nc(Nc2ccc3c(c2)CCN3C(C)=O)ncc1Br (stereo not shown) [Example 79]
1.11[b]		COCC(C)Nc1nc(Nc2cccc(NC(C)=O)c2)ncc1Br (stereo not shown) [Example 80]
2.02[b]		COCC(C)Nc1nc(Nc2ccc(F)cc2F)ncc1Cl (stereo not shown) [Example 81]
3.22[b]		COCC(C)Nc1nc(Nc2ccc(C(F)(F)F)cc2)ncc1Cl (stereo not shown) [Example 82]
2.11[b]		COCC(C)Nc1nc(Nc2cccc(C#N)c2)ncc1Cl (stereo not shown) [Example 83]
1.46[b]		COCC(C)Nc1nc(Nc2ccc(OC)c(OC)c2)ncc1Cl (stereo not shown) [Example 84]
1.78[b]		COCC(C)Nc1nc(Nc2cccc(OC)c2)ncc1Cl (stereo not shown) [Example 85]
1.56[b]		COCC(C)Nc1nc(Nc2ccc(OC)cc2)ncc1Cl (stereo not shown) [Example 86]
3.14[b]		COCC(C)Nc1nc(Nc2cccc(OC(F)(F)F)c2)ncc1Cl (stereo not shown) [Example 87]
3.81[b]		COCC(C)Nc1nc(Nc2ccc(SC(F)(F)F)cc2)ncc1Cl (stereo not shown) [Example 88]
2.77[b]		COCC(C)Nc1nc(Nc2ccc(SC)c(Cl)c2)ncc1Cl (stereo not shown) [Example 89]
1.87[b]		COCC(C)Nc1nc(Nc2ccc(-c3cscn3)cc2)ncc1Cl (stereo not shown) [Example 90]
1.71[b]		COCC(C)Nc1nc(Nc2ccc(CC(=O)OC)cc2)ncc1Cl (stereo not shown) [Example 91]
3.85[b]		COCC(C)Nc1nc(Nc2ccc3c(c2)OC(F)(F)C(F)(F)O3)ncc1Cl (stereo not shown) [Example 92]
1.75[b]		COCC(C)Nc1nc(Nc2cccc(CC(=O)OC)c2)ncc1Cl (stereo not shown) [Example 93]

logP [1]	further results	Compound
4.08[b]		COCC(C)Nc1nc(Nc2cc(Cl)cc(Cl)c2)ncc1Cl (stereo not shown) [Example 94]
2.95[b]		COCC(C)Nc1nc(Nc2ccc(C(=O)OC)c(Cl)c2)ncc1Cl (stereo not shown) [Example 95]
2.04[b]		CCOc1cccc(Nc2ncc(Cl)c(NC(C)COC)n2)c1 (stereo not shown) [Example 96]
1.56[b]		COCC(C)Nc1nc(Nc2ccc3c(c2)OCO3)ncc1Cl (stereo not shown) [Example 97]
3.99[b]		COCC(C)Nc1nc(Nc2ccc(OC(F)(F)F)c(Cl)c2)ncc1Cl (stereo not shown) [Example 98]
1.48[b]		COCC(C)Nc1nc(Nc2ccc(N(C)C(C)=O)cc2)ncc1Cl (stereo not shown) [Example 99]
2.09[b]		COCC(C)Nc1nc(Nc2ccc(Cl)c(S(C)(=O)=O)c2)ncc1Cl (stereo not shown) [Example 100]
2.13[b]		COCC(C)Nc1nc(Nc2cccc(SC)c2)ncc1Cl (stereo not shown) [Example 101]
2.09[b]		COCC(C)Nc1nc(Nc2ccc(C(=O)CC#N)cc2)ncc1Cl (stereo not shown) [Example 102]
1.97[b]		COCC(C)Nc1nc(Nc2ccc3c(c2)CCC3=O)ncc1Cl (stereo not shown) [Example 103]
2.36[b]		CCC(=O)c1ccc(Nc2ncc(Cl)c(NC(C)COC)n2)cc1 (stereo not shown) [Example 104]
1.75[b]		COCC(C)Nc1nc(Nc2ccc3sc(C)nc3c2)ncc1Cl (stereo not shown) [Example 105]
2.11[b]		COCC(C)Nc1nc(Nc2ccc3oc(=O)sc3c2)ncc1Cl (stereo not shown) [Example 106]
1.48[b]		COCC(C)Nc1nc(Nc2ccc3c(c2)CCN3C(C)=O)ncc1Cl (stereo not shown) [Example 107]
2.26[b]		COCC(C)Nc1nc(Nc2cccc(C#N)c2)ncc1Br (stereo not shown) [Example 108]
1.63[b]		COCC(C)Nc1nc(Nc2ccc(OC)cc2)ncc1Br (stereo not shown) [Example 110]
2.99[b]		COCC(C)Nc1nc(Nc2ccc(SC)c(Cl)c2)ncc1Br (stereo not shown) [Example 111]
1.99[b]		COCC(C)Nc1nc(Nc2ccc(-c3cscn3)cc2)ncc1Br (stereo not shown) [Example 112]
1.87[b]		COCC(C)Nc1nc(Nc2cccc(CC(=O)OC)c2)ncc1Br (stereo not shown) [Example 113]
4.32[b]		COCC(C)Nc1nc(Nc2cc(Cl)cc(Cl)c2)ncc1Br (stereo not shown) [Example 114]
3.14[b]		COCC(C)Nc1nc(Nc2ccc(C(=O)OC)c(Cl)c2)ncc1Br (stereo not shown) [Example 115]
2.18[b]		CCOc1cccc(Nc2ncc(Br)c(NC(C)COC)n2)c1 (stereo not shown) [Example 116]
1.64[b]		COCC(C)Nc1nc(Nc2ccc3c(c2)OCO3)ncc1Br (stereo not shown) [Example 117]

logP [1]	further results	Compound
4.23[b]		COCC(C)Nc1nc(Nc2ccc(OC(F)(F)F)c(Cl)c2)ncc1Br (stereo not shown) [Example 118]
1.56[b]		COCC(C)Nc1nc(Nc2ccc(N(C)C(C)=O)cc2)ncc1Br (stereo not shown) [Example 119]
2.16[b]		COCC(C)Nc1nc(Nc2cccc(S(=O)(=O)N3CCOCC3)c2)ncc1Br (stereo not shown) [Example 120]
	logP [3]: 2.23[b]	COCC(C)Nc1nc(Nc2ccc(C(=O)CC#N)cc2)ncc1Br (stereo not shown) [Example 121]
	logP [3]: 1.87[b]	COCC(C)Nc1nc(Nc2ccc3sc(C)nc3c2)ncc1Br (stereo not shown) [Example 122]
	logP [3]: 1.9[b]	COCC(C)Nc1nc(Nc2cccc(NC(=O)C(C)(C)C)c2)ncc1Cl (stereo not shown) [Example 147]
	logP [3]: 1.51[b]	COCC(C)Nc1nc(Nc2ccc(C(=O)N(C)C)cc2)ncc1Cl (stereo not shown) [Example 148]
	logP [3]: 2.06[b]	COCC(C)Nc1nc(Nc2ccc(SC)cc2)ncc1Cl (stereo not shown) [Example 149]
	logP [3]: 2.77[b]	COCC(C)Nc1nc(Nc2cccc(S(=O)(=O)N3CCCCC3)c2)ncc1Cl (stereo not shown) [Example 150]
	logP [3]: 2.26[b]	COCC(C)Nc1nc(Nc2ccc(CC(=O)C(C)(C)C)cc2)ncc1Cl (stereo not shown) [Example 151]
	logP [3]: 1.59[b]	COCC(C)Nc1nc(Nc2cccc(NC(=O)OC)c2)ncc1Cl (stereo not shown) [Example 153]
	logP [3]: 2.33[b]	COCC(C)Nc1nc(Nc2ccc(C)c(SC)c2)ncc1Cl (stereo not shown) [Example 154]
	logP [3]: 1.47[b]	COCC(C)Nc1nc(Nc2cccc(C(=O)N(C)C)c2)ncc1Cl (stereo not shown) [Example 155]
	logP [3]: 1.68[b]	COCC(C)Nc1nc(Nc2cccc(NC(=O)C(C)C)c2)ncc1Cl (stereo not shown) [Example 156]
	logP [3]: 1.99[b]	COCC(C)Nc1nc(Nc2cccc(C(=O)NC(C)(C)C)c2)ncc1Cl (stereo not shown) [Example 157]
	logP [3]: 2.61[b]	COCC(C)Nc1nc(Nc2ccc(OC(F)(F)C(F)F)cc2)ncc1Cl (stereo not shown) [Example 158]
	logP [3]: 1.68[b]	COCC(C)Nc1nc(Nc2ccc(O)c(C(C)=O)c2)ncc1Cl (stereo not shown) [Example 159]
	logP [3]: 1.34[b]	COCC(C)Nc1nc(Nc2ccc(O)c(F)c2)ncc1Cl (stereo not shown) [Example 160]
	logP [3]: 2.33[b]	COCC(C)Nc1nc(Nc2ccc(N(C(C)=O)C3CCCCC3)cc2)ncc1Cl (stereo not shown) [Example 161]
	logP [3]: 1.78[b]	COCC(C)Nc1nc(Nc2cccc(NC(=O)C3(C)CC3)c2)ncc1Cl (stereo not shown) [Example 162]
	logP [3]: 1.87[b]	COCC(C)Nc1nc(Nc2ccc(N(C)C(=O)C(C)(C)C)cc2)ncc1Cl (stereo not shown) [Example 163]
